Test systems include KM20L2 colon; SNB-78 CNS; DMS 114 small cell lung; XF 498 CNS; HOP-18 NSCLC; DMS 273 small cell lung; M19-MEL melanoma; RXF-631 renal; MDA-N; P388/ADR leukemia; SN12K1 renal.
Experiment in all cases: NCI tumour cell line growth inhibition, 48 h

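Five compound concentrations were applied to cells in 96-well plates for 48 hours; endpoints were derived by simple linear interpolation of the resulting dose-response curve. GI50 marks 50% less growth. At the TGI there is no net growth.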 Some results are limits rather than exact numbers.

For the compound `COc1ccc(-c2cc(C(=O)Nc3cccc(C(F)(F)F)c3)[nH]c(=S)n2)cc1`, the TGI in the experiment with KM20L2 colon, in the experiment on SNB-78 CNS, in the experiment with DMS 114 small cell lung, in the experiment on XF 498 CNS, in the experiment with HOP-18 NSCLC and with DMS 273 small cell lung was greater than 100 µM each time. The TGI with M19-MEL melanoma is greater than 100 µM.

`Cc1c(/C=C2\CC/C(=C\c3[nH]c(C(=O)OC(C)(C)C)c(C)c3C)C2=O)[nH]c(C(=O)OC(C)(C)C)c1C`: the TGI in the experiment with KM20L2 colon, with SNB-78 CNS, with DMS 114 small cell lung, in the experiment with XF 498 CNS, in the experiment with HOP-18 NSCLC and with DMS 273 small cell lung was greater than 100 µM each time. Also, the TGI with M19-MEL melanoma is greater than 100 µM.

For `O=c1/c(=C/c2cccc3ccccc23)sc2nc3ccccc3n12`, the TGI in the experiment on KM20L2 colon, with SNB-78 CNS, with DMS 114 small cell lung, with HOP-18 NSCLC, in the experiment on DMS 273 small cell lung and with RXF-631 renal was greater than 100 µM throughout. This compound gave a TGI with M19-MEL melanoma greater than 100 µM.

With `COc1cc(OC)cc(N2CCC(c3c(N)nc(N)nc3Cl)CC2)c1`, the TGI with KM20L2 colon, with SNB-78 CNS, in the experiment on XF 498 CNS, in the experiment with DMS 273 small cell lung, with RXF-631 renal and in the experiment on M19-MEL melanoma was greater than 100 µM in each case.

On to `COc1nc(OC)c2c(=O)oc(-c3ccccc3)cc2n1`, for which the TGI in the experiment on KM20L2 colon, with SNB-78 CNS, with DMS 114 small cell lung, in the experiment with DMS 273 small cell lung and in the experiment with M19-MEL melanoma was greater than 100 µM in each case.

As for `CC(C)C1CN1CC(O)Cn1ccnc1[N+](=O)[O-]` (stereo not given), the TGI in the experiment on MDA-N is greater than 100 µM.

On to `CS(=O)(=O)C1S(=O)(=O)OCCOS1(=O)=O`, for which the TGI in the experiment with KM20L2 colon, in the experiment on SNB-78 CNS, with DMS 114 small cell lung, with XF 498 CNS, in the experiment with HOP-18 NSCLC and with DMS 273 small cell lung was greater than 100 µM in each case. Also, the TGI in the experiment with RXF-631 renal and with M19-MEL melanoma was greater than 100 µM throughout.

Consider `O=c1cc2n(c(=O)[nH]1)C1OC(C(O)C1O)[C@@H]2CCO` (stereo not given in full), for which the TGI in the experiment on KM20L2 colon, with SNB-78 CNS, in the experiment on DMS 114 small cell lung, in the experiment on DMS 273 small cell lung and in the experiment on M19-MEL melanoma was greater than 100 µM in each case.

As to `COC(=O)c1cnc2nc(N3CCOCC3)[nH]n2c1=O`, the TGI in the experiment on KM20L2 colon, in the experiment with SNB-78 CNS, with DMS 114 small cell lung, with DMS 273 small cell lung and in the experiment with M19-MEL melanoma was greater than 100 µM throughout.

For `COc1cc2c(cc1OC)C13CCN4CC5=CCOC(CC(=O)O)C(C5CC41)C3N2` (stereo not given), the TGI with MDA-N is greater than 100 µM.

Take `O=C(Cn1ccnc1[N+](=O)[O-])N(CCO)CCO`: the TGI is greater than 1250 µM in the experiment on KM20L2 colon; greater than 1250 µM in the experiment with SNB-78 CNS; greater than 250 µM in the experiment with MDA-N; greater than 1250 µM in the experiment with DMS 114 small cell lung; greater than 1250 µM in the experiment with P388/ADR leukemia; greater than 1250 µM in the experiment on SN12K1 renal. The TGI in the experiment on XF 498 CNS is greater than 58 µM; in the experiment on HOP-18 NSCLC, greater than 1250 µM; with DMS 273 small cell lung, greater than 1250 µM; in the experiment on M19-MEL melanoma, greater than 1250 µM.

For the compound `CCc1nc2c(O)ccc(O)c2nc1C`, the TGI with KM20L2 colon is 34 µM; in the experiment on SNB-78 CNS, 62.6 µM; in the experiment with DMS 114 small cell lung, 36.1 µM; in the experiment with XF 498 CNS, 39.4 µM; in the experiment with HOP-18 NSCLC it was 35.3 µM; with DMS 273 small cell lung, 37 µM. Moreover, the TGI in the experiment on RXF-631 renal came to 34.3 µM; with M19-MEL melanoma, 19.4 µM.

With `CCOC(C)OCC#CCCBr` (stereo not given), the TGI in the experiment with KM20L2 colon, in the experiment with SNB-78 CNS, in the experiment with DMS 114 small cell lung, with HOP-18 NSCLC, with DMS 273 small cell lung and in the experiment with M19-MEL melanoma was greater than 100 µM each time.

Take `CC(C)(C)c1nc2c(o1)C(=Nc1ccccc1)c1ccccc1C2=O`: the TGI in the experiment with KM20L2 colon is 85.8 µM; in the experiment with SNB-78 CNS, 43.7 µM; in the experiment on XF 498 CNS, 9.66 µM; in the experiment on HOP-18 NSCLC, 20.9 µM; with DMS 273 small cell lung it was 11.3 µM; in the experiment with RXF-631 renal it was 51.9 µM. The compound also yielded a TGI in the experiment on M19-MEL melanoma of 2.32 µM.

Take `N#C/C(=C\c1ccc(CP(=O)(O)O)cc1)C(N)=O`: the TGI in the experiment on KM20L2 colon, with DMS 114 small cell lung, in the experiment on XF 498 CNS, in the experiment on HOP-18 NSCLC, with DMS 273 small cell lung and with M19-MEL melanoma was greater than 100 µM in each case.

Consider `CC(=O)[CH-]C(=O)c1ccccc1.CC(=O)[CH-]C(=O)c1ccccc1.[Nd+3].[OH-].[OH3+]`, for which the GI50 in the experiment with KM20L2 colon, with HOP-18 NSCLC and with M19-MEL melanoma was greater than 100 µM each time. The TGI in the experiment on KM20L2 colon, in the experiment on HOP-18 NSCLC and in the experiment with M19-MEL melanoma was greater than 100 µM in each case.

For the compound `OCC(O)CC[CH2][Sn]([c]1ccccc1)([c]1ccccc1)[c]1ccccc1` (stereo not given), the GI50 in the experiment with KM20L2 colon is 19.4 µM; in the experiment on SNB-78 CNS it was 19.6 µM; in the experiment on XF 498 CNS, 19.5 µM; with HOP-18 NSCLC, 24.9 µM; in the experiment on DMS 273 small cell lung, 14.3 µM; in the experiment with RXF-631 renal it was 13.6 µM. The GI50 in the experiment on M19-MEL melanoma was 17.1 µM. The TGI stood at 34.7 µM with KM20L2 colon; 41.3 µM in the experiment on SNB-78 CNS; 35.9 µM in the experiment on XF 498 CNS; 39.7 µM in the experiment with HOP-18 NSCLC; 29.6 µM in the experiment on DMS 273 small cell lung; 28.7 µM in the experiment on RXF-631 renal. In the experiment with M19-MEL melanoma, this compound gave a TGI of 31.1 µM.

Regarding `CN(C)CCNC(=O)c1ccc2ccc3cccnc3c2n1`, the TGI was 72 µM with KM20L2 colon; greater than 34.8 µM in the experiment on SNB-78 CNS; 25.6 µM in the experiment on DMS 114 small cell lung; greater than 100 µM in the experiment with HOP-18 NSCLC; 22.6 µM in the experiment on DMS 273 small cell lung.

On to `O=C(NO)c1ccc(C(=O)NO)cc1`, for which, in the experiment on MDA-N, the TGI is greater than 100 µM.

For the origin of these results see PubChem BioAssay (NCI).
